What is called pIC50 is −log10 of the IC50, conventionally taken in molar units. A higher pIC50 goes with a low IC50.

This passage reports IC50 results from ChEMBL document CHEMBL1156569, “Structural basis for the improved drug resistance profile of new generation benzophenone non-nucleoside HIV-1 reverse transcriptase inhibitors” (J Med Chem, 2008).

Common to all, as to format: functional, organism-based
Common to all, as to settings: Human immunodeficiency virus 1, HeLa

The subject of assay [1] is Human immunodeficiency virus 1. Briefly: Antiviral activity against NNRTI-resistant HIV1 with reverse transcriptase V106A mutant in HeLa cells by MAGI assay.
In assay [2] the test system is Human immunodeficiency virus 1. Briefly: Antiviral activity against NNRTI-resistant HIV1 with reverse transcriptase Y181C mutant in HeLa cells by MAGI assay.
The test system of assay [3] is Human immunodeficiency virus 1. The assay can be described thus: Antiviral activity against NNRTI-resistant HIV1 with reverse transcriptase V106I/Y181C mutant in HeLa cells by MAGI assay.
The test system of assay [4] is Human immunodeficiency virus 1. The assay can be described thus: Antiviral activity against NNRTI-resistant HIV1 with reverse transcriptase Y188L mutant in HeLa cells by MAGI assay.
In assay [5] the test system is Human immunodeficiency virus 1. The assay can be described thus: Antiviral activity against NNRTI-resistant HIV1 with reverse transcriptase E138K mutant in HeLa cells by MAGI assay.
Assay [6] relates to Human immunodeficiency virus 1. The assay can be described thus: Antiviral activity against NNRTI-resistant HIV1 with reverse transcriptase V106A/Y181C mutant in HeLa cells by MAGI assay.
Assay [7] concerns Human immunodeficiency virus 1. Briefly: Antiviral activity against NNRTI-resistant HIV1 with reverse transcriptase P225H mutant in HeLa cells by MAGI assay.
The test system of assay [8] is Human immunodeficiency virus 1. Briefly: Antiviral activity against NNRTI-resistant HIV1 with reverse transcriptase L100I mutant in HeLa cells by MAGI assay.
In assay [9] the test system is Human immunodeficiency virus 1. Briefly: Antiviral activity against NNRTI-resistant HIV1 with reverse transcriptase V106I mutant in HeLa cells by MAGI assay.
The subject of assay [10] is Human immunodeficiency virus 1. The assay can be described thus: Antiviral activity against NNRTI-resistant HIV1 with reverse transcriptase V108I mutant in HeLa cells by MAGI assay.
Assay [11] concerns Human immunodeficiency virus 1. The assay can be described thus: Antiviral activity against NNRTI-resistant HIV1 with reverse transcriptase V106M mutant in HeLa cells by MAGI assay.
The test system of assay [12] is Human immunodeficiency virus 1. The assay can be described thus: Antiviral activity against NNRTI-resistant HIV1 with reverse transcriptase G190E mutant in HeLa cells by MAGI assay.
Assay [13] concerns Human immunodeficiency virus 1. The assay can be described thus: Antiviral activity against NNRTI-resistant HIV1 with reverse transcriptase V108I/Y181C mutant in HeLa cells by MAGI assay.
In assay [14] the test system is Human immunodeficiency virus 1. The assay can be described thus: Antiviral activity against NNRTI-resistant HIV1 with reverse transcriptase K103N/P225H mutant in HeLa cells by MAGI assay.
For assay [15], the system named is Human immunodeficiency virus 1. The assay can be described thus: Antiviral activity against NNRTI-resistant HIV1 with reverse transcriptase K103N/V108I mutant in HeLa cells by MAGI assay.
Assay [16] concerns Human immunodeficiency virus 1. Briefly: Antiviral activity against NNRTI-resistant HIV1 with reverse transcriptase G190A mutant in HeLa cells by MAGI assay.
Assay [17] relates to Human immunodeficiency virus 1. The assay can be described thus: Antiviral activity against NNRTI-resistant HIV1 with reverse transcriptase P236L mutant in HeLa cells by MAGI assay.
For assay [18], the system named is Human immunodeficiency virus 1. Briefly: Antiviral activity against NNRTI-resistant HIV1 with reverse transcriptase K103N/L100I mutant in HeLa cells by MAGI assay.
Assay [19] has as its system Human immunodeficiency virus 1. Briefly: Antiviral activity against NNRTI-resistant HIV1 with reverse transcriptase G190S mutant in HeLa cells by MAGI assay.
Assay [20] has as its system Human immunodeficiency virus 1. The assay can be described thus: Antiviral activity against NNRTI-resistant HIV1 with reverse transcriptase K103N mutant in HeLa cells by MAGI assay.
Assay [21] relates to Human immunodeficiency virus 1. The assay can be described thus: Antiviral activity against NNRTI-resistant HIV1 with reverse transcriptase K101E mutant in HeLa cells by MAGI assay.
Assay [22] relates to Human immunodeficiency virus 1. Briefly: Antiviral activity against NNRTI-resistant HIV1 with reverse transcriptase Y188C mutant in HeLa cells by MAGI assay.
Assay [23] concerns Human immunodeficiency virus 1. The assay can be described thus: Antiviral activity against wild type HIV1 in HeLa cells by MAGI assay.
Assay [24] relates to Human immunodeficiency virus 1. The assay can be described thus: Antiviral activity against NNRTI-resistant HIV1 with reverse transcriptase K103N/Y181C mutant in HeLa cells by MAGI assay.
Assay [25] relates to Human immunodeficiency virus 1. Briefly: Antiviral activity against NNRTI-resistant HIV1 with reverse transcriptase K103N/G190A mutant in HeLa cells by MAGI assay.

pIC50: −log10 of the molar value.

On to `Cc1ccnc2c1NC(=O)c1cccnc1N2C1CC1` [NEVIRAPINE], for which the pIC50 in assay [1] was 5.73; in assay [2], under 5.70; in assay [3], under 5.70; in assay [4] it was under 5.70; in [5] it was 7.15; in assay [6], under 5.70. For the same compound, the pIC50 in [7] was 6.93; in assay [8], 6.52; in assay [9] it was 7.05; in [10] it was 6.53; in assay [11], under 5.70; in assay [12] it was 7.08. Moreover, the pIC50 in assay [13] was under 5.70; in [14], under 5.70; in assay [15], under 5.70; in assay [16] it was under 5.70; in [17] it was 7.23; in [18], under 5.70. Besides, the pIC50 is under 5.70 in [19]; under 5.70 in assay [20]; 6.39 in [21]; 6.10 in [22]; 7.28 in [23]; under 5.70 in assay [24]. Besides, in [25], the pIC50 was under 5.70.
As to `O=C(COc1ccc(Cl)cc1C(=O)c1ccccc1)Nc1ccccc1`, the pIC50 in assay [1] is 6.16; in assay [2], 6.79; in assay [3], 5.72; in assay [4] it was under 5.70; in assay [5], 7.57; in [6], 6.04. The pIC50 in assay [7] was 8.48; in [8], 7.68; in assay [9], 7.74; in assay [10], 7.72; in assay [11], 6.81; in [12], 8.08. In addition, the pIC50 in [13] was 6.20; in assay [14], 7.25; in [15], 6.46; in [16], 7.51; in [17], 8.27; in assay [18] it was 6.57. Also, the pIC50 in assay [19] was 6.87; in assay [20], 7.60; in assay [21], 7.89; in [22], 6.91; in [23], 8.70; in [24], 5.98. This compound gave a pIC50 in assay [25] of 6.18.
`CC(C)Nc1cccnc1N1CCN(C(=O)c2cc3cc(NS(C)(=O)=O)ccc3[nH]2)CC1` [DELAVIRDINE]: the pIC50 was 6.12 in assay [1]; 6.03 in assay [3]; under 5.70 in assay [6]; 6.11 in [8]; 7.66 in assay [9]; under 5.70 in assay [14]. Further, the pIC50 was under 5.70 in assay [15]; 7.68 in assay [16]; under 5.70 in assay [17]; under 5.70 in [18]; 5.80 in [20]; 6.27 in [21]. Moreover, the pIC50 is 5.79 in assay [22], 7.06 in [23], under 5.70 in assay [24] and 6.14 in assay [25].
As for `Cc1cc(S(N)(=O)=O)ccc1NC(=O)COc1ccc(Cl)cc1C(=O)c1cc(F)cc(C(F)(F)F)c1`, the pIC50 in [1] is 8.03; in assay [2] it was 8.68; in assay [3], 8.00; in assay [4] it was 7.18; in assay [5] it was 8.57; in assay [6], 7.89. The pIC50 in assay [7] is 9.15; in assay [8], 8.96; in assay [9], 8.64; in assay [10] it was 8.74; in assay [12], 8.41; in assay [13], 8.49. Also, the pIC50 in [14] is 8.85; in assay [15], 8.59; in assay [16], 8.40; in assay [17], 8.47; in assay [18], 8.55; in [20] it was 8.77. Besides, the pIC50 is 8.51 in [21]; 9.52 in [22]; 8.92 in [23]; 8.48 in [24]; 7.89 in assay [25].
Consider `Cc1cc(S(N)(=O)=O)ccc1NC(=O)COc1ccc(Cl)cc1C(=O)c1cc(Cl)cc(C#N)c1`, for which the pIC50 is 8.96 in assay [1]; 9.40 in assay [2]; 8.42 in assay [3]; 7.85 in assay [4]; 8.80 in assay [5]; 9.00 in [6]. Also, the pIC50 was 9.52 in [8]; 9.10 in [9]; 9.15 in assay [10]; 9.40 in [11]; 9.40 in assay [12]; 9.22 in [13]. For the same compound, the pIC50 in assay [14] was 9.15; in assay [15], 9.05; in [16], 9.22; in [17], 9.40; in assay [18] it was 9.05; in [19], 9.15. For the same compound, the pIC50 in assay [20] is 9.40; in assay [21], 9.22; in assay [22], 10.40; in assay [23], 9.70; in assay [24], 8.92; in [25] it was 8.48.
`O=C1Nc2ccc(Cl)cc2C(C#CC2CC2)(C(F)(F)F)O1` (single isomer, unassigned) [EFAVIRENZ]: the pIC50 in [1] was 9.10; in assay [2], 9.10; in assay [3], 8.52; in assay [4], 6.81; in [5], 8.92; in assay [6], 8.70. In addition, the pIC50 in assay [7] was 8.89; in assay [8], 7.68; in assay [9], 9.05; in assay [10], 8.74; in assay [11], 8.14; in [12], 9.00. Besides, the pIC50 is 8.57 in assay [13]; 7.03 in assay [15]; 8.23 in assay [16]; 9.22 in [17]; 5.92 in assay [18]; 7.05 in assay [19]. In addition, the pIC50 was 7.77 in assay [20]; 8.64 in assay [21]; 8.92 in [22]; 9.40 in [23]; 7.36 in [24].
